Data on three molecules can be found in patent publication US20240075037A1, “SKIN BARRIER FUNCTION IMPROVING AGENT” (Japan Tobacco Inc., priority 2013, published 2024).

Read-outs that look alike come from different tables or passages of the source.

The test system of experiment [1] is three-dimensional culture skin model TESTSKIN LSE-high. Briefly: Increase in protein amount of skin barrier-related protein in three-dimensional culture skin model (Western blotting). It is filed as cell-based, human. The following applies: 1000 nmol/L. The protocol: Experiment 4. Increase in Protein Amount of Skin Barrier-Related Protein by JAK Inhibitor in Three-Dimensional Culture Skin Model
As a three-dimensional cultured skin model, TESTSKIN LSE-high {TOYOBO CO., LTD., TMLSE-013A} was used <Non-Patent Literature 11>. According to the instruction manual of the TESTSKIN LSE-high, the Living Skin Equivalent <LSE> tissue on the Transwell was cultured in an assay medium included in the kit at 37° C. under 5% CO2 for 24 hours.
After removing the medium from the LSE tissue culture system, an assay medium containing Compound A in a final concentration of 1000 nmol/L was added in the presence or absence of human IL-4 and human IL-13 {R&D Systems, Inc.} in a final concentration of 20 ng/mL, respectively, and the LSE tissue was cultured at 37° C. under 5% CO2 for three days. The medium was replaced in the same manner as described above, and the LSE tissue was cultured at 37 ° C. under 5% CO2 for another two days. The skin layer of the LSE tissue was collected in a tube, and 0.1 mL of a 50 mmol/L Tris-HCl (pH 8.0) buffer containing 9 mol/L urea, 2% Triton X-100, protease inhibitor cocktail {Sigma-Aldrich Corporation, P8340} and phosphatase inhibitor cocktail {NACALAI TESQUE, INC., 07575-51} was added, and lysed by ultrasonication. To the tissue lysate, 0.08 mL of laemmli SDS-PAGE sample buffer containing 1.73 mmol/L 2-mercaptoethanol was added, and heated at 95 degrees Celsius for five minutes to thermally denature proteins.
The thermally denatured proteins (0.015 mg/lane) were separated by SDS-polyacrylamide electrophoresis <SDS-PAGE> on 4-12% NuPAGE Bis-Tris gel {Life technologies Corporation}, and filaggrin protein and loricrin protein were detected by Western blotting method. As an internal standard, GAPDH protein was detected. According to ordinary methods, the protein that was separated by SDS-PAGE was blotted on a PVDF membrane {GE Healthcare Ltd.}, and the PVDF membrane was blocked with 5% skim milk {NACALAI TESQUE, INC.}. […] The protein of interest was detected by light exposure to an autoradiography film, Amersham Hyperfilm ECL {GE Healthcare Ltd.} from the PVDF membrane, by using a chemiluminescent substrate {ECL Western Blotting Detection Reagents; GE Healthcare Ltd., RPN2232} according to the instruction manual.

In experiment [2] the test system is dry skin model mouse. Description: NMF production in dry skin model mouse (confocal Raman). The following applies: dry skin (A/E/W) model mouse, 0.5% (w/v) topical once a day, Day 7; FIG. 11. It counts as in vivo. Here is the method: (§1) “Production of Dry Skin Model Mouse”
(§2) Using a dry skin model mouse <Non-Patent Literature 12>, the effect of improving the skin barrier function by a JAK inhibitor was evaluated. As an experimental animal, an 8 weeks old female C57BL/6JJmsSlc mouse {Japan SLC, Inc.} was used.
Absorbent cotton dipped in a mixed liquid of acetone and diethyl ether (1:1) was put on the surface of the inner side of the right or both auricles of the mouse for 30 seconds, and then absorbent cotton dipped in water was put on the same region for 30 seconds <hereinafter, abbreviated as an A/E/W treatment>. This treatment was conducted twice a day for seven days for each group to produce a dry skin model. […]
A mouse having undergone the A/E/W treatment on its both auricles was used in the experiment. On Day 7, the total NMF amount of the stratum corneum of both the auricles of the mouse was determined by an in vivo confocal Raman spectrometer {model 3510, River Diagnostics, Inc.} <Compound A administration group and Vehicle group; n=3, respectively>.
A Raman spectrum in the region of 400 to 1800 cm^−1 was measured at an excitation wavelength of 785 nm at intervals of 1 micrometer from the surface of the inner side of the left auricle to the depth of 8 micrometers. A total NMF amount was quantified as an amount per keratin by using Skin Tools 2.0 {River Diagnostics, Inc.}. […]

Experiment [3] has as its system dry skin model mouse. Description: Profilaggrin mRNA amount in dry skin model mouse (quantitative real-time PCR). It counts as in vivo. Conditions: dry skin (A/E/W) model mouse, 0.5% (w/v) topical once a day, Days 0, 3 and 6, ratio to Day 0; FIG. 10. Here is the method:
Experiment 5. Increase in Profilaggrin mRNA Amount, Increase of NMF Production and Acceleration of Reduction in TEWL by JAK Inhibitor in Dry Skin Model Mouse
as §1, §2
Absorbent cotton dipped in a mixed liquid of acetone and diethyl ether (1:1) was put on the surface of the inner side of the right or both auricles of the mouse for 30 seconds, and then absorbent cotton dipped in water was put on the same region for 30 seconds <hereinafter, abbreviated as an A/E/W treatment>. This treatment was conducted twice a day for seven days for each group to produce a dry skin model. The day on which the A/E/W treatment started was taken as Day 0. […]
“Quantitative Real-Time PCR”
A mouse having undergone the A/E/W treatment on its right auricle was used in the experiment. […] The cDNA was analyzed by real-time PCR method <intercalator method> using Light Cycler 480 SYBR Green I Master {Roche Diagnostics K.K.} and Light Cycler 480 II {Roche Diagnostics K.K.}, and the Ct values of mouse profilaggrin and GAPDH were respectively determined. […] A relative mRNA amount of mouse profilaggrin was calculated by comparative Ct method. […]

The subject of experiment [4] is contact dermatitis model mouse. Briefly: Suppression of ear swelling in contact dermatitis model mouse (DNFB). It counts as in vivo. The following applies: oral 0.3 or 3 mg/mL at 10 mL/Kg once a day, 24 hours from initiation, FIG. 7. The protocol:
Using a contact dermatitis model mouse against DNFB <Non-Patent Literature 10>, the ear swelling suppressing action of the JAK inhibitor was evaluated. As an experimental animal, an 8 weeks old female C57BL/6j mouse {SHIMIZU Laboratory Supplies Co., Ltd.} was used.
An abdominal region of the mouse was shaved, and each 0.025 mL of 0.5% (w/v) DNFB {2,4-Dinitrofluorobenzene, Sigma-Aldrich Corporation} diluted with AOO <mixed solution of acetone and olive oil in 4:1> was applied on the abdominal region . After five days, each 0.01 mL of 0.3% (w/v) DNFB diluted with AOO was applied on the front and back of both the auricles of the mouse . For five days from the date of sensitization, 0.5% (w/v) methylcellulose <MC> was administered once a day to the Vehicle group, and 0.3 mg/mL or 3 mg/mL of Compound A suspended in 0.5% (w/v) MC was orally administered to Compound A administration group in a dose of 10 mL/Kg. Each group included three animals. On the days of sensitization and initiation, 0.5% (w/v) MC or Compound A was orally administered one hour before sensitization and initiation.
Before initiation and after 24 hours from initiation, the thickness of each auricle was measured once with a thickness gauge {TECLOCK Corporation}, and an average of the variation from the thickness of each auricle before initiation was taken as an individual value.

In experiment [5] the test system is Tape Stripping-treated mouse. Description: NMF production increasing action in Tape Stripping-treated mouse (confocal Raman). It is filed as in vivo. The following applies: 0.5% (w/v) in acetone applied to auricle once a day, one, five and seven days after Tape Stripping, FIGS. 5, 6. The protocol: As an experimental animal, an 8 to 10 weeks old female C57BL/6j mouse {SHIMIZU Laboratory Supplies Co., Ltd.} was used.
The operation of sticking a cellophane adhesive tape {NICHIBAN CO. , Ltd.} on the inner side of the left auricle of the mouse and peeling the tape off <Tape Stripping> was repeated five times to peel off the cuticle. Each 0.02 mL of acetone <Vehicle> or 0.5% (w/v) test substance was applied to the site having undergone the Tape Stripping once a day until the sixth day after the Tape Stripping. On Day 1 of the Tape Stripping, acetone <Vehicle> or a test substance was applied one hour after the Tape stripping. Compound A or monocitrate of Compound B was used as a test substance.
After one, five and seven days from the Tape Stripping, the total NMF amount of the inner side of the left auricle was determined by an in vivo confocal Raman spectrometer {model 3510, River Diagnostics, Inc.}.
A Raman spectrum in the region of 400 to 1800 cm^−1 was measured at an excitation wavelength of 785 nm at intervals of 1 micrometer from the surface of the inner side of the left auricle to the depth of 8 micrometers. A total NMF amount was quantified as an amount per keratin by using Skin Tools 2.0 {River Diagnostics, Inc.}. […] An average value of the total NMF amount was calculated for each measurement depth, and was shown as an individual value at each depth.

The test system of the next experiment is JAK. Conditions: cited from earlier work.
For experiment [6], the system named is dry skin model mouse. Description: TEWL in dry skin model mouse. It counts as in vivo. Conditions: dry skin (A/E/W) model mouse, 0.5% (w/v) topical once a day, Days 0, 1, 3, 4 and 7; FIG. 12. Here is the method:
as §1, §2
Absorbent cotton dipped in a mixed liquid of acetone and diethyl ether (1:1) was put on the surface of the inner side of the right or both auricles of the mouse for 30 seconds, and then absorbent cotton dipped in water was put on the same region for 30 seconds <hereinafter, abbreviated as an A/E/W treatment>. This treatment was conducted twice a day for seven days for each group to produce a dry skin model. The day on which the A/E/W treatment started was taken as Day 0. As a normal control group, a mouse not having undergone the A/E/W treatment was used. […]
A mouse having undergone the A/E/W treatment on its right auricle was used in the experiment. TEWL in the region where the A/E/W treatment had been conducted was measured directly before the A/E/W treatment on Days 0, 1, 3 and 4, and on Day 7 <Compound A administration group and Vehicle group; n=4, respectively>. TEWL was measured by using a water loss measuring device VAPOSCAN AS-VT100RS {ASAHIBIOMED} at room temperatures (23° C. to 26° C.) and a humidity of 40% to 60%. […]

Where [7] appears, read: in the absence of IL-4/IL-13, five days.
Where [8] appears, read: in the presence of IL-4/IL-13 20 ng/mL, five days, FIG. 8.

Consider `C[C@H]1CN(C(=O)CC#N)[C@]12CCN(c1ncnc3[nH]ccc13)C2` [Compound A, 3-[(3S,4R)-3-methyl-6-(7H-pyrrolo[2,3-d]pyrimidin-4-yl)-1,6-diazaspiro[3.4]octan-1-yl]-3-oxopropanenitrile], for which the filaggrin protein amount entry in experiment [1] (setting [7]) and in experiment [1] (setting [8]) was “increase” throughout. The loricrin protein amount result in experiment [1] (setting [7]) and in experiment [1] (setting [8]) was “increase” each time. Moreover, the “total NMF amount (NMF production)” value (with dry skin model mouse [2]; in experiment [5]) was “NMF production increasing action” each time. The “profilaggrin mRNA amount” value in the experiment with dry skin model mouse [3] is given as “increase”. Moreover, the “ear swelling (auricle thickness variation)” value in experiment [4] is recorded as “suppression of ear swelling”. In the experiment on JAK (stated as known), the JAK inhibition result is “known to inhibit JAK”. Besides, the “TEWL (transepidermal water loss)” value with dry skin model mouse [6] is “accelerating a reduction in TEWL”.
Consider `N#CC[C@H](C1CCCC1)n1cc(-c2ncnc3[nH]ccc23)cn1` [Compound C, (3R)-3-cyclopentyl-3-[4-(7H-pyrrolo[2,3-d]pyrimidin-4-yl)-1 H-pyrazol-1-yl]propanenitrile, reference compound], for which the JAK inhibition result with JAK is “known to inhibit JAK”.
Turning to `C[C@@H]1CCN(C(=O)CC#N)C[C@@H]1N(C)c1ncnc2[nH]ccc12` [monocitrate of Compound B, 3-{(3R,4R)-4-methyl-3-[methyl(7H-pyrrolo[2,3-d]pyrimidin-4-yl)amino]piperidin-1-yl}-3-oxopropanenitrile, reference compound], in experiment [5], the “total NMF amount (NMF production)” value is reported as “NMF production increasing action”.
